Reference: patent US7902361B2, “Pyrimidin-4-yl-3, 4-thione compounds and their use in therapy” (Cyclacel Limited, priority 2003, dated 2011)
Read-outs that look alike come from different tables or passages of the source.

Tests used:
CDK2/cyclin A = CDK2/cyclin A (Homo sapiens, UniProt P24941); experiment: Kinase assay CDK2/cyclin A; type: biochemical; settings: Ki calculated (Cheng-Prusoff) from experimentally determined IC50 and Km,ATP; read-out: Kinase Inhibition Ki CDK2 - cyclin A
Procedure, shortened: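 Radiometric assays measured transfer of radioactive phosphate from ATP onto polypeptide substrates, using 2-4 μg recombinant active enzyme in buffer typically containing 25 mM β-glycerophosphate, 20 mM MOPS, 5 mM EGTA, 1 mM DTT and 1 mM Na3VO3 at pH 7.4. Reactions were stopped on ice, filtered on P81 or GF/C plates and washed with orthophosphoric acid. Incorporated radioactivity was scintillation-counted.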

CDK4/cyclin D1 = CDK4/cyclin D1 (Homo sapiens, UniProt P11802); experiment: Kinase assay CDK4/cyclin D1; type: biochemical; settings: Ki calculated (Cheng-Prusoff) from experimentally determined IC50 and Km,ATP; read-out: Kinase Inhibition Ki CDK4 - cyclin D1
CDK4/cyclin D1, sequence (P11802 whole entry, species assumed): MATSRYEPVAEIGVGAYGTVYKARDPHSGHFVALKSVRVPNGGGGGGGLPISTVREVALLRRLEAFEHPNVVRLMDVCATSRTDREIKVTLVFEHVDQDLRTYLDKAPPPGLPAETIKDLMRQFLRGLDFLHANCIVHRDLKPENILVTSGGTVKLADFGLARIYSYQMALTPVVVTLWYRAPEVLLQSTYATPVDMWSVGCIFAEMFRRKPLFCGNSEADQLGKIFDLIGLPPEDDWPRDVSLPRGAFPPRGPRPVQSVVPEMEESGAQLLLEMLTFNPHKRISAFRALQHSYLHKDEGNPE
CDK4/cyclin D1, sequence (P24385 whole entry partner, species assumed): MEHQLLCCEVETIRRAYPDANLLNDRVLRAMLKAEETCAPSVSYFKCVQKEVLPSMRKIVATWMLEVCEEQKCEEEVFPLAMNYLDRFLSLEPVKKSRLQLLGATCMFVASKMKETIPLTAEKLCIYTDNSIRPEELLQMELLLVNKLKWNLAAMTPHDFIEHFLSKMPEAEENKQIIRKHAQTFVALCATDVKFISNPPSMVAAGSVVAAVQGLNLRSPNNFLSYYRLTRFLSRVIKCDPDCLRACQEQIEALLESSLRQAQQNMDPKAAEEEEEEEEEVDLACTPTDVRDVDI
Procedure, shortened: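 Radiometric filter assays used recombinant kinases or complexes (2-4 μg) with appropriate polypeptide substrates in pH 7.4 β-glycerophosphate/MOPS buffer. Reactions were started with 15 mM MgCl2 and 100 μM ATP containing [γ-32P]-ATP and run at 30° C. Phosphate incorporated into substrate was counted by scintillation after washing.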

PEPCK gene expression = PEPCK gene expression assay - qPCR in HEPG2 cells; type: cell-based; settings: Homo sapiens, HepG2, HEPG2, read-out: PEPCK gene expression, % of maximum stimulation
Experimental: PEPCK gene expression was studied in HEPG2 (hepatocarcinoma) cells, seeded in 6-well plate at […] per well. The cells were serum-starved for 20 hours before treatment with dexamethasone/cAMP (stimulator of PEPCK gene expression) in the presence or absence of insulin or GSK3 inhibitor example compounds. After 3 hours treatment the cells were harvested, lysed and RNA extracted using mini RNeasy spin columns (Quiagen). The primer set COD2063/COD2064 (350 bp) was used for the PEPCK gene. The one step RT-PCR was carried out using the Lightcycler-RNA Master SYBR Green 1 Kit. The qPCR analysis calculates the number of the PCR cycles required for the PCR product amplification to reach logarithmic phase. QPCR for a housekeeping gene—28S—was used for normalisation. PEPCK is a key enzyme in gluconeogenesis in the liver and it is known to be negatively regulated by insulin via inhibition of GSK3. The effect of example compounds on PEPCK gene expression was studied in HEPG2 cells treated with dexamethasone/cAMP (a positive regulator PEPCK gene expression) in the presence or absence of insulin or GSK3 inhibitors. Example compound inhibitors of GSK3 were efficient in the abolishment of dexamethasone/cAMP induced stimulation of PEPCK gene expression in HEPG2 cells.

Row | Compound | Ki (CDK2/cyclin A) | Ki (CDK4/cyclin D1) | Emax (PEPCK gene expression; 1 μM + Dex/cAMP) | Emax (PEPCK gene expression; 10 μM + Dex/cAMP) | Emax (PEPCK gene expression; 0.1 μM + Dex/cAMP)
1 | CC(=O)Nc1cc(Nc2nccc(-c3sc(=O)n(C)c3C)n2)cc(C(F)(F)F)c1 [Compound 64, N-{3-[4-(3,4-Dimethyl-2-oxo-2,3-dihydro-thiazol-5-yl)-pyrimidin-2-ylamino]-5-trifluoromethyl-phenyl}-acetamide] |  |  |  |  | 11.4 ± 3.2%
2 | Cc1c(-c2ccnc(Nc3cc(Br)cc(C(F)(F)F)c3)n2)sc(=O)n1C [Compound 68, 5-[2-(3-Bromo-5-trifluoromethyl-phenylamino)-pyrimidin-4-yl]-3,4-dimethyl-3H-thiazol-2-one] |  |  |  | 60.7 ± 20% | 
3 | COCCNS(=O)(=O)c1cccc(Nc2nccc(-c3sc(=O)n(C)c3C)n2)c1 [Compound 67, 3-[4-(3,4-Dimethyl-2-oxo-2,3-dihydro-thiazol-5-yl)-pyrimidin-2-ylamino]-N-(2-methoxy-ethyl)-benzenesulfonamide] | 1300 nM | 1400 nM | 101 ± 38.2% | 17.4 ± 0.97% | 

Second part, led by results:

Row | Ki (CDK2/cyclin A) | Ki (CDK4/cyclin D1) | Compound | Emax (PEPCK gene expression; 1 μM + Dex/cAMP) | Emax (PEPCK gene expression; 10 μM + Dex/cAMP) | Emax (PEPCK gene expression; 0.1 μM + Dex/cAMP)
4 | 610 nM | 330 nM | CCNS(=O)(=O)c1cccc(Nc2nccc(-c3sc(=O)n(C)c3C)n2)c1 [Compound 62, 3-[4-(3,4-Dimethyl-2-oxo-2,3-dihydro-thiazol-5-yl)-pyrimidin-2-ylamino]-N-ethyl-benzenesulfonamide] |  |  | 
5 | 410 nM | 150 nM | Cc1c(-c2ccnc(Nc3cccc(S(=O)(=O)NCCO)c3)n2)sc(=O)n1C [Compound 75, 3-[4-(3,4-Dimethyl-2-oxo-2,3-dihydro-thiazol-5-yl)-pyrimidin-2-ylamino]-N-(2-hydroxy-ethyl)-benzenesulfonamide] | 37.2 ± 0.37% | 17.1 ± 0.68% | 
